The values that follow come from patent US12358896B2, “LRRK2 inhibitors and methods of making and using thereof” (DENALI THERAPEUTICS INC., priority 2019, dated 2025).

Each structure is given as a SMILES string.

Data set [1] in a line: Metabolic stability in human liver microsomes (Biological Example 2). Type of data set: in vitro ADME. The note with it: hepatic clearance (CLhep) scaled from human liver microsomes, 1 μM, well-stirred model. As to the method:
Metabolic stability of select compounds was evaluated in human liver microsomes (from Corning or XenoTech, LLC) using a 96-well plate assay format. Compounds were incubated at 37° C. at 1 μM final concentration in the microsomal matrix (0.5 mg/mL total protein) in the presence or absence of NADPH cofactor. An NADPH regenerating system, comprised of NADP, MgCl2, isocitric acid, and isocitrate dehydrogenase, was used in the assay. Enzymatic reactions were conducted for 0, 5, 10, 20, 30, or 60 min before termination by addition of acetonitrile containing tolbutamide and labetalol internal standards (100 ng/mL). After shaking for 10 min, plates were subjected to centrifugation (4000 rpm at 4° C.) for 20 min and supernatants mixed 1:3 with HPLC grade water. Samples were analyzed by LC-MS/MS using appropriate MRM transitions for each analyte and internal standard (IS). Analyte/IS peak area ratios were used to determine percent compound remaining at each time point. Intrinsic clearance (Clint; expressed as mL·min^−1·mg^−1) was calculated from the first order elimination constant (k, min^−1) of test article decay and the volume of the incubation. These values were scaled to intrinsic organ clearance (Clint) using human specific scaling factors (48.8 mg microsomal protein per g liver; 25.7 g liver per kg body weight). Organ Clint was subsequently converted to hepatic clearance, HLM, (CLhep, mL·min-1·kg-1) using the well-stirred model of hepatic elimination, where Qh is human hepatic blood flow (20.7 mL·min-1·kg-1).
CLhep is the projected human clearance in the liver based on the above in vitro assay. A lower value is indicative of less compound being removed by the liver.
Background: Liver microsomes are a subcellular fraction often used to study metabolism.

Another data set concerns the target LRRK2 G2019S enzyme (Homo sapiens, UniProt Q5S007, G2019S). Description: LRRK2 G2019S TR-FRET biochemical assay (Biological Example 1). The note with it: 134 μM ATP, 5 nM LRRK2, LRRKtide substrate. As to the method:
• LRRK2 G2019S enzyme • Substrate (LRRKtide) • ATP • TR-FRET dilution buffer • pLRRKtide antibody • 384-well assay plate • DMSO Enzyme Reaction Conditions • 50 mM Tris pH 7.5, 10 mM MgCl2, 1 mM EGTA, 0.01% Brij-35, 2 mM DTT • 5 nM LRRK2 • 134 μM ATP • 60 minute reaction time • 23° C. reaction temperature • 10 μL total reaction volume Detection Reaction Conditions • 1×TR-FRET dilution buffer • 10 mM EDTA • 2 nM antibody • 23° C. reaction temperature • 10 μL total reaction volume
Compounds are prepared by initially diluting to 1 mM with DMSO. 35 μL of reference compound solution, 35 μL of test compound solution, and 35 μL HPE are successively added to the source plate (384-well assay plate, Labcyte). The plates are centrifuged at 2500 rpm for 1 minute and sealed in foil. POD is used to perform a 3.162 fold serial dilution and 100 nL of reference compound solution, test compound solution, HPE and ZPE are transferred to assay plates. The assay plate is centrifuged at 2500 rpm for 1 minute, and sealed with foil.
To perform the enzyme reaction, 5 μL of LRRKtide substrate and kinase mixture in assay buffer is added to all wells of the assay plate. The plate is centrifuged to concentrate the mixture at the bottom of the wells. The assay plate is incubated at 23° C. for 20 minutes. Following incubation, 5 μL of 2×ATP in assay buffer is added to each well, and plates are centrifuged to concentrate the mixture at the bottom of the wells. The plate is incubated at 23° C. for 60 minutes.
To perform the detection of the reaction, EDTA completely mixed in TR-FRET dilution buffer is added to antibody reagent. 10 μL of detection reagent is added to all wells of each well of the assay plate and the plate is centrifuged to concentrate the mixture at the bottom of the wells. The plate is then incubated at 23° C. for 60 minutes. Plates are read on Perkin Elmer Envision 2104 instrument in TR-FRET mode using a 340 nm excitation filter, 520 nm fluorescence emission filter, and 490 or 495 nm terbium emission filter.
Background: TR-FRET usually uses a lanthanide donor and a delayed reading to cut background.

For data set [2], the target named is T1, FLAG-tagged human LRRK2 with G2019S mutation (Homo sapiens, UniProt Q5S007, G2019S).
T1 construct: expressed in transfected cells; host or cells: HEK293 / 293T cells, transient transfection with pCMV-FLAG-G2019S
The data set can be described thus: Inhibition of pSer935 in HEK293 cells with expressed G2019S LRRK2 (Biological Example 4). The data set is classed as cell-based. The conditions noted are these: transfected 293T cells, 90 minutes compound treatment, MSD readout; read-out: HEK293T LRRK2 G2019S pS935. As to the method:
In this assay, inhibition of phosphorylation of LRRK2 at residue serine 935 (pS935) by test compound was determined in HEK293 cells.
HEK293 cells were first transiently transfected with a plasmid harboring FLAG-tagged human LRRK2 cDNA with G2019S mutation (p.G2019S) under the control of CMV promoter for robust overexpression. The levels of phosphorylated Ser935 in G2019S expressing cells with or without compound treatment were measured by MSD using an anti-FLAG capture antibody and a phosho-specific anti-LRRK2 pS935 monoclonal detection antibody. The IC50 was determined by fitting a 10-point dose response data in duplicate with four parameter non-linear regression curve.
(Day 1) 293T cell seeding: 293T cells were seeded (1.4×10^6/well) into each well of a 6-well plate. After two days in culture, the cell number can grow into 5×10^6/well, so N+1 wells were seeded (enough for N 96 well assay plates).
(Day 2) 293T cell transfection: 5 μL of pCMV-FLAG-G2019S or pCMV-FLAG-WT LRRK2 (0.5 μg/μL) was added into 145 μL of DMEM medium, and mixed thoroughly by pipette up and down several times. 15 μL of SuperFect Transfection Reagent was added into samples, mixed thoroughly by pipetting up and down several times, and allowed to equilibrate at room temperature for 5-10 minutes. 0.5 mL of pre-warmed cell culture medium was added into samples, and mixed thoroughly by pipetting up and down several times. 650 μL of the mixture was added dropwise into each well of the 6 well plate, the plate was swirled to mix thoroughly, and incubated in a 37° C. incubator with a humidified atmosphere of 5% CO2 for 20-24 hours.
(Day 3) 293T cells seed into 96 well plates: Cells were harvested and resuspended in cell culture medium at 0.96×10^6 cells/mL density. 50 μL/well cells were plated onto 96-well cell culture plate (48,000 cells/well), and the plates were incubated in a 37° C. incubator with a humidified atmosphere of 5% CO2 for 20-24 hours.
(Day 4) Inhibitor Treatment and Cell Lysis: The compound destination plates were thawed at room temperature and centrifuged at 2000 rpm. 55 μL cell culture medium was added into compound destination plate, and the plate was warmed at 37° C.
50 μL of cell culture medium containing compounds was transferred into cell culture plate. Plates were incubated in a 37° C. incubator with a humidified atmosphere of 5% CO2 for 90 minutes, after which all of compound-containing medium was completely aspirated manually with 300 μL pipette. 100 μL/well of Lysis Buffer was added and the plates sealed, shaken at 4° C. for 30 minutes, and stored at −20° C. until usage.
(Day 5) MSD procedure: 2 μg/25 μL/well of FLAG antibody diluted in PBS was added into the MSD plate, incubated for two hours at room temperature or overnight at 4° C. (in Day 4). 50 μL (3.9 μg/μL) of FLAG antibody plus 2.5 mL PBS, per 96 well plate, or 50 μL (3.9 μg/μL) anti-FLAG antibody plus 5 mL PBS per 384 well plate. The plates were centrifuged at 1000 rpm for 10 seconds and shaken with a plate shaker for 10 seconds.
Anti-FLAG antibody was discarded, and the wells were washed using multidrop, low speed, two times with 300 μL/well of wash buffer for a 96 well plate or three times with 70 μL/well of wash buffer for a 384 well plate. 50 μL/well of block buffer for a 96 well plate, or 25 μL/well of block buffer for a 384 well plate, was added and the plates were incubated for two hours at room temperature. The Block buffer was then discarded and the wells washed two times using multidrop, low speed, with 300 μL/well of wash buffer for a 96 well plate, or three times with 70 μL/well of wash buffer for a 384 well plate.
25 μL of cell lysate was transferred into a 96 well MSD plate, or 12.5 μL of cell lysate into 384 well MSD plate, and the plates were incubated for one hour at room temperature.
Note: The cell lysate should be thawed one hour prior to this step, the plate centrifuged at 1000 rpm for one minute, shaken for 30 seconds, and then unsealed for lysate transfer. […]

T1 sequence (Q5S007 whole entry G2019S): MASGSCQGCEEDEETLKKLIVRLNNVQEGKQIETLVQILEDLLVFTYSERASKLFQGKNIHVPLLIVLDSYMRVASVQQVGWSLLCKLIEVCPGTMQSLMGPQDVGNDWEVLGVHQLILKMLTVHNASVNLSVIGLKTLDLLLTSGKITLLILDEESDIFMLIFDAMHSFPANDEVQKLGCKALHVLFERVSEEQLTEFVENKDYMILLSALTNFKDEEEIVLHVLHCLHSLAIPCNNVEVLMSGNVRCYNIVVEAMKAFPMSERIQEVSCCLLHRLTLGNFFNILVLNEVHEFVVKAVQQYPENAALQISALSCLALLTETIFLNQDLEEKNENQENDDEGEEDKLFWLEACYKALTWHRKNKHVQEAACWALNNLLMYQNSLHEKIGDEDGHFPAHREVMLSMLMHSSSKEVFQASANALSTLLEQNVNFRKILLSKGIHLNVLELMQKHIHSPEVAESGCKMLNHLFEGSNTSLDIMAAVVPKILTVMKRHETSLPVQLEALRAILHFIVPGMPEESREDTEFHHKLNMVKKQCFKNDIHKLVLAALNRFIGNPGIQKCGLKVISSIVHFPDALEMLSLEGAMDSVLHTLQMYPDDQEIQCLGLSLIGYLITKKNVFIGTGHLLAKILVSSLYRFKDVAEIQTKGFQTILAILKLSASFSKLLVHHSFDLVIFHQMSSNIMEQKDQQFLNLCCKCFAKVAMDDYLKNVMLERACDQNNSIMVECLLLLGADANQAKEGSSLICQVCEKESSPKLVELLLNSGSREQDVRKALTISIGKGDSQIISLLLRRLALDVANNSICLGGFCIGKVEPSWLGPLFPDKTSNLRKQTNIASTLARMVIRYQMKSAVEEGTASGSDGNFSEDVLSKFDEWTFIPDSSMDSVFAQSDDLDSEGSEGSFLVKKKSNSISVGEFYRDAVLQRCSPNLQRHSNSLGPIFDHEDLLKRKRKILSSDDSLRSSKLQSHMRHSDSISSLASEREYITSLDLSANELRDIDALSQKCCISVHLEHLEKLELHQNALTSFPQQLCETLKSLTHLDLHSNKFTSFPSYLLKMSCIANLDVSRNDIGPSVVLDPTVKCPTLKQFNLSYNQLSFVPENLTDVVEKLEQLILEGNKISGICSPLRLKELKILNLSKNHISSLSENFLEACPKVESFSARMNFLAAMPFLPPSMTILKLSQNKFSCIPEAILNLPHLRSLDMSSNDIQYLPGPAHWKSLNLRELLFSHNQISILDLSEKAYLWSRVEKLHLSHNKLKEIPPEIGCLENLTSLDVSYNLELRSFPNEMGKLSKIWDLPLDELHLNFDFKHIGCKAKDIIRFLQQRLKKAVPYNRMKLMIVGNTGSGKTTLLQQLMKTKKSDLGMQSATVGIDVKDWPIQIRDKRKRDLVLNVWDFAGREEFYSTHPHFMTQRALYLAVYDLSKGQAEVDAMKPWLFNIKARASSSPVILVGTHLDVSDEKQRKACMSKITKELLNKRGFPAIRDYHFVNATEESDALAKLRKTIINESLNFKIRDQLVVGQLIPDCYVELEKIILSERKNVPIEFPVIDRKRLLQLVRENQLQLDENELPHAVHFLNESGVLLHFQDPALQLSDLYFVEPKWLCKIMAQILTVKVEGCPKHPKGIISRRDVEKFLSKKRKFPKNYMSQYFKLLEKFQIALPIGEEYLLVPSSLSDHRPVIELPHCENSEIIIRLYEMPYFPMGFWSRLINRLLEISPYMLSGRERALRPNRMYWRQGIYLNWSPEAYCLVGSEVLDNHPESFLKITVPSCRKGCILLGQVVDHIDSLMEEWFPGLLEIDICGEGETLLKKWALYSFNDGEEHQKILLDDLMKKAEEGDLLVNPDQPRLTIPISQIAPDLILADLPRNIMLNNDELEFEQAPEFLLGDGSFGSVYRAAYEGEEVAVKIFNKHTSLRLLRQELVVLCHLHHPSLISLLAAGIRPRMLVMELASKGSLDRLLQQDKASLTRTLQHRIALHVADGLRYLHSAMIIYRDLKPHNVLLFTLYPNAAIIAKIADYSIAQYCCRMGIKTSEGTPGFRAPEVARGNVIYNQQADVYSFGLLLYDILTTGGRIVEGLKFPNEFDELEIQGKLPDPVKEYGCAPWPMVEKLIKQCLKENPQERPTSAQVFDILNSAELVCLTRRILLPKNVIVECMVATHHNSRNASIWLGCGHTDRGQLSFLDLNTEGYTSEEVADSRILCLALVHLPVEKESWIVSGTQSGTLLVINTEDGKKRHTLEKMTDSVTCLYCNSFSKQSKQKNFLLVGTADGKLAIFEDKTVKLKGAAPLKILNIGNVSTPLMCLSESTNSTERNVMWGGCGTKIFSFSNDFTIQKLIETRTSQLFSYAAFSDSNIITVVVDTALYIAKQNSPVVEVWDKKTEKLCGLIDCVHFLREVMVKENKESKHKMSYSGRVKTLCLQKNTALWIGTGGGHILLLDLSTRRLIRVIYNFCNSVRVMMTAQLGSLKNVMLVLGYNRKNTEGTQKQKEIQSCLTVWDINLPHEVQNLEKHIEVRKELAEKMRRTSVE
LRRK2 G2019S enzyme, sequence (Q5S007 whole entry G2019S): as above

Regarding `Cc1nn(C2C[C@]2(C)C(N)=O)cc1Nc1ncc(C(F)(F)F)c(NC2(C)CC2)n1` (single isomer, unassigned) [Example 4, (1,2-cis)-1-methyl-2-(3-methyl-4-((4-((1-methylcyclopropyl)amino)-5-(trifluoromethyl)pyrimidin-2-yl)amino)-1H-pyrazol-1-yl)cyclopropanecarboxamide], in data set [1], the “HLM Avg” value is 8.9 mL/min/kg. Further, the IC50 against LRRK2 G2019S enzyme worked out at 1.49 nM; in data set [2] it was 3 nM.
Regarding `Cc1nn(C2C[C@]2(C)C(N)=O)cc1Nc1ncc(C(F)(F)F)c(NC2CC2)n1` (single isomer, unassigned) [Example 6, (1,2-cis)-2-(4-((4-(cyclopropylamino)-5-(trifluoromethyl)pyrimidin-2-yl)amino)-3-methyl-1H-pyrazol-1-yl)-1-methylcyclopropanecarboxamide], the values for the IC50 (at LRRK2 G2019S enzyme; in data set [2]) were 1.23 nM and 5.79 nM, respectively.
On the same counts, the results for `CNc1nc(Nc2cn([C@@H]3C[C@@H]3C(N)=O)nc2C2CC2)ncc1C(F)(F)F` (single isomer, unassigned) [Example 2, (1,2-cis)-2-(3-cyclopropyl-4-((4-(methylamino)-5-(trifluoromethyl)pyrimidin-2-yl)amino)-1H-pyrazol-1-yl)cyclopropanecarboxamide] are 2.8 nM and 3.06 nM.
Consider `Cc1nn(C2C[C@@]2(C)C(N)=O)cc1Nc1ncc(C(F)(F)F)c(NC2(C)CC2)n1` (single isomer, unassigned) [Example 1, (1,2-cis)-1-methyl-2-(3-methyl-4-((4-((1-methylcyclopropyl)amino)-5-(trifluoromethyl)pyrimidin-2-yl)amino)-1H-pyrazol-1-yl)cyclopropanecarboxamide], for which the “HLM Avg” value in data set [1] came to 6.4 mL/min/kg. In addition, the results for the IC50 (on LRRK2 G2019S enzyme; in data set [2]) were 1.03 nM and 1.79 nM, respectively.
Consider `CCNc1nc(Nc2cn(C3C[C@@]3(C)C(N)=O)nc2C)ncc1Br` (single isomer, unassigned) [Example 3, (1,2-cis)-2-(4-((5-bromo-4-(ethylamino)pyrimidin-2-yl)amino)-3-methyl-1H-pyrazol-1-yl)-1-methylcyclopropanecarboxamide], for which the results for the IC50 (at LRRK2 G2019S enzyme; in data set [2]) were 2.28 nM and 10.5 nM, respectively.
On the same counts, the results for `CCNc1nc(Nc2cn([C@@H]3C[C@@H]3C(N)=O)nc2C2CC2)ncc1C(F)(F)F` (single isomer, unassigned) [Example 8, (1,2-cis)-2-(3-cyclopropyl-4-((4-(ethylamino)-5-(trifluoromethyl)pyrimidin-2-yl)amino)-1H-pyrazol-1-yl)cyclopropanecarboxamide] are 1.11 nM and 4.94 nM.
Take `CCNc1nc(Nc2cn([C@@H]3C[C@]3(C)C(N)=O)nc2C2CC2)ncc1C(F)(F)F` (single isomer, unassigned) [Example 5, (1,2-cis)-2-(3-cyclopropyl-4-((4-(ethylamino)-5-(trifluoromethyl)pyrimidin-2-yl)amino)-1H-pyrazol-1-yl)-1-methylcyclopropanecarboxamide]: the “HLM Avg” value in data set [1] worked out at 11 mL/min/kg. The IC50 against LRRK2 G2019S enzyme was determined as 0.92 nM; in data set [2], 5.12 nM.
